Values of other authors as cited in paper PMC11071479 (bioRxiv, 2024).

Target: T1, MCT4 (Homo sapiens, UniProt O15427)
T1 sequence (O15427 2-465): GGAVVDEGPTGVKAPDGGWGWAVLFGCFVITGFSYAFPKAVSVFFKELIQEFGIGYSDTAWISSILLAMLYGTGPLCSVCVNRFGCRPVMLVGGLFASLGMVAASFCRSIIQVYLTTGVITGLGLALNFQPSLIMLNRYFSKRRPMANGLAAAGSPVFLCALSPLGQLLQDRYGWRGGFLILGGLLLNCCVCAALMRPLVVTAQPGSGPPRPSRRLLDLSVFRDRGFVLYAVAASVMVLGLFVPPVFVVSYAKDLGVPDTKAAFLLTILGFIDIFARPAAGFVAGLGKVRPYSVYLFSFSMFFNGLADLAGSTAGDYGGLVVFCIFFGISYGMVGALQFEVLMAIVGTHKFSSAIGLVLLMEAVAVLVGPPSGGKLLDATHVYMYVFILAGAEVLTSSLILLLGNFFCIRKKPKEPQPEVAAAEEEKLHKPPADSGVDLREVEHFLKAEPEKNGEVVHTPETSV
Test: MCT4 inhibition IC50 stated without citation
Type: cell-based

VB253
IC50: ~2 nM
